Experimental data from patent US20260373165A1, “PHARMACEUTICAL COMBINATIONS AND COMPOSITIONS, AND METHODS OF USE THEREOF” (SHENZHEN HIGHTIDE BIOPHARMACEUTICAL LTD., priority 2022, published 2026).
“Also recorded” adds a separate entry of the source.

How the values were obtained:
Type in all cases: in vivo, mouse (C57BL/6J male, 60% HFD DIO)
[1] = Example 2: body weight and body weight change rate, combined administration of HTD1801 and dapagliflozin or empagliflozin in DIO obesity model; settings: HTD1801 250 mpk, dapagliflozin 10 mpk, empagliflozin 15 mpk p.o. QD, semaglutide 10 nmol/kg s.c. Q3D
Source text: (§1) After 5-6-week-old C57BL/6J male mice were acclimatized for 1 week, the weight of each mouse was weighed, and the mice were randomly divided into a control group and a model group by taking the weight as a main index, where 12 mice in the control group were fed with common feed (CD), and the mice in the remaining model group were fed with 60% high-fat feed (60% HFD) for 10-12 weeks to construct a DIO obesity model, with the average body weight being not less than 40 g. The mice fed with 60% HFD were grabbed and acclimatized with a solvent for 3 days, where the acclimatization with a solvent was performed by oral gavage of 0.5% CMC-Na, once daily.
(§2) The food intake, the body weight, the body fat ratio, and the insulin level of the mice were respectively measured, followed by fasting blood glucose level, and the mice were randomly grouped according to Table 12 by taking the body weight as an index, and the remaining ungrouped mice were euthanized. After grouping, each group of mice was administered according to Table 12, the day of administration was defined as DO, and the administration volume of each drug was determined based on the results obtained by the calculation of 5 μL/g× mouse body weight (g).
(§3) For the combined administration group, the administration sequence and the administration time were kept consistent at each administration. The mice were continuously fed with high-fat feed during the administration period until the administration was finished. During administration, 1 food intake was measured per week (difference in feed weights at an interval of 24 h was measured); each group of mice was weighed once daily; blood was collected from the tail tip on day 16 and day 30, respectively, so as to measure fasting blood glucose levels once (blood was collected after fasting from 9:00 am to 3:[…]); on day 24 of administration (D23), the body fat ratio and the lean mass of each group of mice were measured by MRI (the measurement period was kept consistent with that before grouping); after 25 days of administration intervention (day 24), each group of mice was fasted for 6 h and subjected to OGTT (0 min, 15 min, 30 min, 60 min, 90 min, 120 min) to detect their blood glucose levels; after 29 days of administration intervention (day 28), each group of mice was fasted for 6 h and subjected to OGTT (0 min, 15 min, 30 min, 60 min, 90 min, 120 min), and meanwhile subjected to blood sampling via submaxillary vein (0 min, 15 min, 30 min, about 30 μL of blood sampled each time), and then the blood plasma was separated for detecting the insulin level by ELISA, where the separated blood plasma was more than 10 μL; the next day (D30) at the end of administration was set as the test endpoint, and the mice were fasted for 6 h in the morning and subjected to fasting blood glucose level measurement; subsequently, the mice were euthanized with CO2, blood was collected from the heart of each mouse for analysis, and each group of mice was dissected; the liver and subcutaneous, epididymal and mesenteric fat was collected, photographed and weighed, respectively.

[2] = Example 2: body fat mass by MRI on day 23
Source text: as §1, §2, §3
The body weight, the body fat mass and the body fat ratio of each animal in groups G1 to G8 were measured on day 23 and averaged for each group, and the results are shown in Table 15 below, and FIGS. 21 and 22.

[3] = Example 2: lean mass by MRI on day 23
Source text: as §1, §2, §3
The body weight, the lean mass and the lean ratio of each animal in groups G1 to G8 were measured on day 23 and averaged for each group, and the results are shown in Table 16 below, and FIGS. 23 and 24.

[4] = mean, day 23, HTD1801 250 mpk, dapagliflozin 10 mpk, empagliflozin 15 mpk p.o. QD

OC[C@H]1O[C@@H](c2ccc(Cl)c(Cc3ccc(O[C@H]4CCOC4)cc3)c2)[C@H](O)[C@@H](O)[C@@H]1O [Empagliflozin, empagliflozin]
body weight change / weight loss effect (in words) [1]: basically kept unchanged; also recorded: could not achieve the weight loss effect
Body weight (mean) ([1]; day 0 (baseline)): 46.2 g
Body weight change rate ([1]; day 0 (baseline)): 0.0%
Body weight (mean) ([1]; day 1): 46.3 g
Body weight change rate ([1]; day 1): 0.4%
Body weight (mean) ([1]; day 2): 46.1 g
Body weight change rate ([1]; day 2): −0.2%
Body weight (mean) ([1]; day 3): 46.0 g
Body weight change rate ([1]; day 3): −0.3%
Body weight (mean) ([1]; day 4): 46.0 g
Body weight change rate ([1]; day 4): −0.5%
Body weight (mean) ([1]; day 5): 45.6 g
Body weight change rate ([1]; day 5): −1.3%
Body weight (mean) ([1]; day 6): 45.8 g
Body weight change rate ([1]; day 6): −0.8%
Body weight (mean) ([1]; day 7): 46.0 g
Body weight change rate ([1]; day 7): −0.4%
Body weight (mean) ([1]; day 8): 45.6 g
Body weight change rate ([1]; day 8): −1.2%
Body weight (mean) ([1]; day 9): 45.5 g
Body weight change rate ([1]; day 9): −1.5%
Body weight (mean) ([1]; day 10): 45.4 g
Body weight change rate ([1]; day 10): −1.7%
Body weight (mean) ([1]; day 11): 45.6 g
Body weight change rate ([1]; day 11): −1.2%
Body weight (mean) ([1]; day 12): 45.5 g
Body weight change rate ([1]; day 12): −1.6%
Body weight (mean) ([1]; day 13): 45.3 g
Body weight change rate ([1]; day 13): −1.9%
Body weight (mean) ([1]; day 14): 45.6 g
Body weight change rate ([1]; day 14): −1.3%
Body weight (mean) ([1]; day 15): 45.6 g
Body weight change rate ([1]; day 15): −1.4%
Body weight (mean) ([1]; day 16): 45.3 g
Body weight change rate ([1]; day 16): −1.9%
Body weight (mean) ([1]; day 17): 45.7 g
Body weight change rate ([1]; day 17): −1.1%
Body weight (mean) ([1]; day 18): 45.7 g
Body weight change rate ([1]; day 18): −1.0%
Body weight (mean) ([1]; day 19): 45.7 g
Body weight change rate ([1]; day 19): −1.2%
Body weight (mean) ([1]; day 20): 45.8 g
Body weight change rate ([1]; day 20): −0.8%
Body weight (mean) ([1]; day 21): 46.0 g
Body weight change rate ([1]; day 21): −0.4%
Body weight (mean) ([1]; day 22): 46.2 g
Body weight change rate ([1]; day 22): −0.1%
Body weight (mean) ([1]; day 23): 46.1 g
Body weight change rate ([1]; day 23): −0.1%
Body weight (mean) ([1]; day 24): 45.7 g
Body weight change rate ([1]; day 24): −1.1%
Body weight (mean) ([1]; day 25): 46.0 g
Body weight change rate ([1]; day 25): −0.4%
Body weight (mean) ([1]; day 26): 46.6 g
Body weight change rate ([1]; day 26): 0.9%
Body weight (mean) ([1]; day 27): 46.5 g
Body weight change rate ([1]; day 27): 0.7%
Body weight (mean) ([1]; day 28): 46.0 g
Body weight change rate ([1]; day 28): −0.4%
Body weight (mean) ([1]; day 29): 46.5 g
Body weight change rate ([1]; day 29): 0.8%
body fat mass and body fat ratio (in words) ([2]; day 23, relative to control group G2): increased
Body weight ([2]; mean, day 23 (Table 15), HTD1801 250 mpk, dapagliflozin 10 mpk, empagliflozin 15 mpk p.o. QD): 46.8 g
Body fat ratio [2, 4]: 49.3%
Fat (body fat mass) [2, 4]: 23.0 g
lean ratio (in words) ([3]; day 23, relative to model control group G2): slightly decreased
Body weight ([3]; mean, day 23 (Table 16), HTD1801 250 mpk, dapagliflozin 10 mpk, empagliflozin 15 mpk p.o. QD): 46.8 g
Lean (lean mass) [3, 4]: 4.2 g
Lean ratio [3, 4]: 9.1%
